{"source": "patent US20250304587A1", "about": "“WEE1 INHIBITOR, PREPARATION THEREFOR AND USE THEREOF” (JIANGSU TASLY DIYI PHARMACEUTICAL CO., LTD., priority 2022, published 2025)", "key": {"BxPC3 cells": {"test_system": "BxPC3 cells", "assay": "Cell Titer-Glo anti-proliferation, BxPC3 cells", "format": "cell-based, human", "conditions": "Homo sapiens, BXPC-3, 72 h, 3 days, read-out: Anti-proliferative activity BxPC3 (IC50 class)", "procedure,_shortened": "(§1)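 Each line was exposed to graded compound concentrations for 3 days at 37 °C, 5% CO2, with final DMSO at 0.2%. Viability was measured by Cell Titer-Glo luminescence, with untreated cells as the maximum and medium as the minimum signal. IC50 came from a variable-slope log(inhibitor)-response fit.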"}, "HT-29 cells": {"test_system": "HT-29 cells", "assay": "Cell Titer-Glo anti-proliferation, HT-29 cells", "format": "cell-based, human", "conditions": "Homo sapiens, HT-29, 72 h, 3 days, read-out: Anti-proliferative activity HT-29 (IC50 class)", "procedure,_shortened": "as §1"}, "OVCAR-3 cells": {"test_system": "OVCAR-3 cells", "assay": "Cell Titer-Glo anti-proliferation, OVCAR-3 cells", "format": "cell-based", "conditions": "Homo sapiens, OVCAR-3, 72 h, 3 days, read-out: Anti-proliferative activity OVCAR-3 (IC50 class)", "procedure,_shortened": "as §1"}, "HUVEC cells": {"test_system": "HUVEC cells", "assay": "Cell Titer-Glo anti-proliferation, normal cells HUVEC", "format": "cell-based", "conditions": "Homo sapiens, HUVEC", "procedure,_shortened": "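Cells were exposed to serial compound concentrations (0.2% DMSO final) for 3 days at 37 °C, 5% CO2, then lysed with Cell Titer-Glo and read by luminescence. Inhibition was referenced to untreated-cell and medium-only controls, and IC50 came from a four-parameter variable-slope log(inhibitor)–response fit.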"}, "[1]": {"assay": "Plasma protein binding (equilibrium dialysis), rat", "format": "in vitro ADME", "conditions": "5 h dialysis, read-out: Plasma Protein binding (PPB) Rat (converted)"}, "[2]": {"assay": "Plasma protein binding (equilibrium dialysis), human", "format": "in vitro ADME", "conditions": "5 h dialysis, read-out: Plasma Protein binding (PPB) Human (converted)"}, "CYP2C9": {"target": "CYP2C9 (Homo sapiens (Human), UniProt P11712)", "sequence (P11712 whole entry, canonical isoform)": "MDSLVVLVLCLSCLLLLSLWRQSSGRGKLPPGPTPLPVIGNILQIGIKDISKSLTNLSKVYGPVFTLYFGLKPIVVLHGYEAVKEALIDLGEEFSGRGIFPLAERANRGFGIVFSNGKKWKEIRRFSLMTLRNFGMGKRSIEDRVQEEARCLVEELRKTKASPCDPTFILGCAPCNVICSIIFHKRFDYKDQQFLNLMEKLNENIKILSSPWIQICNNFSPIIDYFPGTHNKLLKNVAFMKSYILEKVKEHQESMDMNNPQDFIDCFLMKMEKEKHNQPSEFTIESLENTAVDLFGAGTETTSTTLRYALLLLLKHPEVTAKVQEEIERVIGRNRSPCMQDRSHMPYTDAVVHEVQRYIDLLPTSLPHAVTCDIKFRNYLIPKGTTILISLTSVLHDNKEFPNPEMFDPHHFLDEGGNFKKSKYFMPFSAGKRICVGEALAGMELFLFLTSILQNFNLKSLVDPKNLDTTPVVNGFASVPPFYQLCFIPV", "assay": "Cytochrome P450 inhibition (fluorescence), CYP2C9", "format": "in vitro ADME", "conditions": "read-out: IC50 CYP2C9", "method": "(§2) Enzymatic experiments were performed to quantify the inhibition of CYP450 enzyme activity of each isoform of CYP450 by small molecule inhibitors through fluorescence generated by the oxidation of the substrate by cytochrome P450. […] The Solution B composition used for the experiment was: 40 U/mL G6PDH (Sigma-aldrich, Cat #G6378). The substrate mix was 0.05× Solution A, 0.01× Solution B, 50 mM Potassium Phosphate, 0.01 mM BOMCC/0.01 mM EOMCC/0.001 mM DBOMF. […] The data were analyzed and processed using GraphPad Prism 6 software to obtain IC50 values."}, "CYP2C19": {"target": "CYP2C19 (Homo sapiens (Human), UniProt P33261)", "sequence (P33261 whole entry)": "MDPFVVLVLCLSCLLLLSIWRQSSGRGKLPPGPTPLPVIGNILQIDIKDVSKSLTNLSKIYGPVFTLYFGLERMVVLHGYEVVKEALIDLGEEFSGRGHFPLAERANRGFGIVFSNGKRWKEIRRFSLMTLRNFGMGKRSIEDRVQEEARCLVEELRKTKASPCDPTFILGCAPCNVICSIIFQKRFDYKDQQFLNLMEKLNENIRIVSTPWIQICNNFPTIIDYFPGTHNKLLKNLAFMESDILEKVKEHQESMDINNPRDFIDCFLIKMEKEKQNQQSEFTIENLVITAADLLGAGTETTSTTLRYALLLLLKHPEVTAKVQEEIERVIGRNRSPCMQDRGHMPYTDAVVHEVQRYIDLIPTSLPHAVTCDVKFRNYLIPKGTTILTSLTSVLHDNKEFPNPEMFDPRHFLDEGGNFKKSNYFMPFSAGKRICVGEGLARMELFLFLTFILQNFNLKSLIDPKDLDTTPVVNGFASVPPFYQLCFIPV", "assay": "Cytochrome P450 inhibition (fluorescence), CYP2C19", "format": "in vitro ADME", "conditions": "read-out: IC50 CYP2C19", "method": "as §2"}, "CYP2D6": {"target": "CYP2D6 (Homo sapiens (Human), UniProt P10635)", "sequence (P10635 whole entry)": "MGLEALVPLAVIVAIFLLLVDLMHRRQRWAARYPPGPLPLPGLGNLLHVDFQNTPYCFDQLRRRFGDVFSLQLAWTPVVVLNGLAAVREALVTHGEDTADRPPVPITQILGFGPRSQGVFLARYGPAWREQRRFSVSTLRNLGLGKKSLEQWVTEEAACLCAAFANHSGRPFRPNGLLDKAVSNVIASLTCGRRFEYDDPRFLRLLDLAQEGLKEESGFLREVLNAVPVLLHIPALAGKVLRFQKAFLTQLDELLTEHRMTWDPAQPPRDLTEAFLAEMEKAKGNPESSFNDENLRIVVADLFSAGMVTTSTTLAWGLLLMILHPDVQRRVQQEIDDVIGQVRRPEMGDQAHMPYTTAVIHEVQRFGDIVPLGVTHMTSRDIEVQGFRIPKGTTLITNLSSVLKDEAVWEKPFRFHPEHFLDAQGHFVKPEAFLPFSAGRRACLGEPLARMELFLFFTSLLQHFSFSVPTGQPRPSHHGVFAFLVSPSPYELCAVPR", "assay": "Cytochrome P450 inhibition (fluorescence), CYP2D6", "format": "in vitro ADME", "conditions": "read-out: IC50 CYP2D6", "method": "as §2"}, "CYP2C8": {"target": "CYP2C8 (Homo sapiens (Human), UniProt P10632)", "sequence (P10632 whole entry)": "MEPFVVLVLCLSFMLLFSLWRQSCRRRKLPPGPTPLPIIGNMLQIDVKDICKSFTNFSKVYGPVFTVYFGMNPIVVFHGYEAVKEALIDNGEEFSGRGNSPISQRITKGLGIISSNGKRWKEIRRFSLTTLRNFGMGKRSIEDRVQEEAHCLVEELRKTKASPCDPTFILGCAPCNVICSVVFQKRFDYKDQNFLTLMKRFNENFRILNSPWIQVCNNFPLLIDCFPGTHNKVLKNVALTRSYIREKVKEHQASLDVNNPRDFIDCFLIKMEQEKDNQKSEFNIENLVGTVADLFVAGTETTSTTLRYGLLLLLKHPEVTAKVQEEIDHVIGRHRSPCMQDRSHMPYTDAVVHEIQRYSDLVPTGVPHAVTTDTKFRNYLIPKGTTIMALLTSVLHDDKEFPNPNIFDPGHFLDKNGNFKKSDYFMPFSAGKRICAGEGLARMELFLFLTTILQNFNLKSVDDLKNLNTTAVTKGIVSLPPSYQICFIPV", "assay": "Cytochrome P450 inhibition (fluorescence), CYP2C8", "format": "in vitro ADME", "conditions": "read-out: IC50 CYP2C8", "method": "as §2"}, "CYP 2B6": {"target": "CYP 2B6 (Homo sapiens (Human), UniProt P20813)", "sequence (P20813 whole entry)": "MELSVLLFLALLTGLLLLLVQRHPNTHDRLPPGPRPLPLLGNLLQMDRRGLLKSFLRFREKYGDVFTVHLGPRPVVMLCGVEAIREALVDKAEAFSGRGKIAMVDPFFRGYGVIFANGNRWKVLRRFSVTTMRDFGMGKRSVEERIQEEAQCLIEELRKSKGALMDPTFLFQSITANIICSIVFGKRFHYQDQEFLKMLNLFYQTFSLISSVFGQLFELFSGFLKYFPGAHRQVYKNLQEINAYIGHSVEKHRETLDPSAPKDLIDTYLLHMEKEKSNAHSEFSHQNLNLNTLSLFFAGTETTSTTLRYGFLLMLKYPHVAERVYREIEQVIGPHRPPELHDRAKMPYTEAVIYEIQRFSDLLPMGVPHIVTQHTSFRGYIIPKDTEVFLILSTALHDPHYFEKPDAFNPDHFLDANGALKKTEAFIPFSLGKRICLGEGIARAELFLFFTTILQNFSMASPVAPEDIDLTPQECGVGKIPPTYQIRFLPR", "assay": "Cytochrome P450 inhibition, CYP2B6", "format": "in vitro ADME", "method": "as §2"}, "[3]": {"conditions": "SD, rat, in vivo, 14 days"}, "[4]": {"assay": "Plasma protein binding (equilibrium dialysis), mouse", "conditions": "mouse, plasma", "experimental": "(§3) Sample preparation: The compound was dissolved in DMSO to a stock solution of 10 mM, then the compound was diluted with PBS to a secondary stock solution of 0.02 mM, and then the above 0.02 mM was diluted to 1 μM using blank plasma, which was the sample to be incubated.\n(§4) Dialysis set-up preparation: 400 μL of blank PBS was first added to the white wells of the equilibrated dialysis plate and 200 μL of the configured plasma sample was added to the red wells, and the dialysis plate was sealed with a sealing film.\n(§5) Recovery plate preparation: Two 96-well deep-well plates, labelled T0 and T5, were prepared and all plasma samples were added at n=2. 300 μL of acetonitrile (Verapamil-HCl, 4 ng/mL) was added directly to the TO plate, followed by 50 μL of blank PBS mix well for 5 min and left to stand in a 4° C. refrigerator until the end of the incubation.\n(§6) Experimental Operation: The dialysis device and the T5 plate were incubated together for 5 h in a microplate thermostatic shaker (37° C., using 300 rpm or minimum speed). At the end of the incubation, 300 μL of acetonitrile (Verapamil-HCl, 4 ng/mL) was added and 50 μL of PBS solution was added. At the end of the dialysis incubation, a new 96-well deep well plate was taken. Add 50 μL of plasma well sample to the corresponding position of the 96-well plate, 300 μL of acetonitrile and 50 μL of blank PBS; take 50 μL of buffer well sample to the corresponding position of the 96-well plate, then add 300 μL of acetonitrile and 50 μL of blank plasma. Add 300 μL of acetonitrile (Verapamil-HCl, 4 ng/mL) to the plasma-containing wells of the T5 plate, and then 50 μL of PBS solution was added. Shake for 5 min to fully precipitate the proteins and centrifuge at 20,000 g for 10 min at 4° C. Add 200 μL of supernatant to 200 μL of pure water, mix well and perform LC-MS/MS analysis.\n(§7) • Plasma protein binding rate=[(Rpe−Rb)/Rpe]×100% • Recovery=[(Rpe+Rb)/R5 h]×100% • Stability=(R5/R0)×100%\n(§8) • Rpe=ratio of plasma-side testing sample peak area to internal standard • Rb=ratio of buffer side testing sample peak area to internal standard • R5=ratio of incubator stability sample peak area to internal standard • R0=ratio of refrigerator stability sample peak area to internal standard"}, "plasma protein [5]": {"test_system": "plasma protein", "assay": "Plasma protein binding (equilibrium dialysis), rat", "format": "in vitro ADME", "conditions": "1 μM, 5 h dialysis"}, "plasma protein [6]": {"test_system": "plasma protein", "assay": "Plasma protein binding (equilibrium dialysis), human", "format": "in vitro ADME", "conditions": "1 μM, 5 h dialysis"}, "plasma protein [7]": {"test_system": "plasma protein", "assay": "Plasma protein binding (equilibrium dialysis), mouse", "conditions": "mouse plasma, 1 μM, 5 h dialysis", "experimental": "as §3, §4, §5, §6, §7, §8"}, "hERG potassium channel": {"target": "hERG potassium channel (Homo sapiens (Human), UniProt Q12809)", "sequence (Q12809 whole entry)": "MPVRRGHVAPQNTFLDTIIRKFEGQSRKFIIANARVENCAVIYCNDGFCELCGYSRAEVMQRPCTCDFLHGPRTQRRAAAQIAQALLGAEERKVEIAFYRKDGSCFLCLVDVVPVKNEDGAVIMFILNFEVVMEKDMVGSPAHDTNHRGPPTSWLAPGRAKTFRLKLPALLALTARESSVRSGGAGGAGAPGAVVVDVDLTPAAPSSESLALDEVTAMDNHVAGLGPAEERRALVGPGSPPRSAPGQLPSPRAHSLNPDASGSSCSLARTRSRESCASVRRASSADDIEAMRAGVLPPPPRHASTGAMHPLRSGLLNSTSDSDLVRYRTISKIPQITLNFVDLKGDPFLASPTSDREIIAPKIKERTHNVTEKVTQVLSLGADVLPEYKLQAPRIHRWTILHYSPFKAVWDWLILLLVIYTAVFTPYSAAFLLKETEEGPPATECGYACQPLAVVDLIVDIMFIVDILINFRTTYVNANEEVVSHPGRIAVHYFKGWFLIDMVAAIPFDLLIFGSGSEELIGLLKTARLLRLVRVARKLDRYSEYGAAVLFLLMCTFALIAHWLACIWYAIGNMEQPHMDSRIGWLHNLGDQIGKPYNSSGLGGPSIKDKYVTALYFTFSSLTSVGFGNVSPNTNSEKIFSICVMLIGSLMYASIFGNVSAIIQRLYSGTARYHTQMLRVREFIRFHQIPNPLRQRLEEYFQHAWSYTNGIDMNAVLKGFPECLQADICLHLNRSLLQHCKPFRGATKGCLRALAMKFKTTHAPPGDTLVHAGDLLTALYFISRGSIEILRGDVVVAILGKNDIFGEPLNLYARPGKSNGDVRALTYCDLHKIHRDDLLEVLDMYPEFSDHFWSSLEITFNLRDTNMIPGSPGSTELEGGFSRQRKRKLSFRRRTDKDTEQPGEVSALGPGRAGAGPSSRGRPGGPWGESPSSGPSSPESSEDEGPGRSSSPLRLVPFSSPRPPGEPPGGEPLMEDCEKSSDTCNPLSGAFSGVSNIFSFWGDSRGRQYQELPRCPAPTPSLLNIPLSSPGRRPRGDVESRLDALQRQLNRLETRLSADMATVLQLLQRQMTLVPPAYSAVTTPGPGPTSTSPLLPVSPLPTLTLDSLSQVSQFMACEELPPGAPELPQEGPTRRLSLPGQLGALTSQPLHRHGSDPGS", "assay": "hERG potassium channel inhibition, patch clamp in CHO hERG cells"}, "[8]": {"assay": "Toxicity in rats after 14 consecutive days of administration, survival", "conditions": "14 days continuous administration, compared with controls"}}, "note": "Like-named read-outs stand apart in the source and are kept apart here.", "data": [{"smiles": "C=CCn1c(=O)c2cnc(Nc3ccc(N4CCN(C)CC4)cc3)nc2n1-c1cccc(C(C)(C)O)n1", "note": "[AZD1775, reference compound]", "values": [{"measurement": "IC50", "setting": "BxPC3 cells", "result": "100 to 1000", "unit": "nM"}, {"measurement": "IC50", "setting": "HT-29 cells", "result": "100 to 1000", "unit": "nM"}, {"measurement": "IC50", "setting": "OVCAR-3 cells", "result": "100 to 1000", "unit": "nM"}, {"measurement": "IC50", "setting": "HUVEC cells", "result": "> 10000", "unit": "nM"}, {"measurement": "fraction unbound at 5 h, 1 µM", "setting": "[1]", "result": 0.374}, {"measurement": "fraction unbound at 5 h, 1 µM", "setting": "[2]", "result": 0.336}, {"measurement": "IC50", "setting": "CYP2C9", "result": "> 10000", "unit": "nM"}, {"measurement": "IC50", "setting": "CYP2C19", "result": "1000 to 10000", "unit": "nM"}, {"measurement": "IC50", "setting": "CYP2D6", "result": "> 10000", "unit": "nM"}, {"measurement": "IC50", "setting": "CYP2C8", "result": "> 10000", "unit": "nM"}, {"measurement": "IC50", "setting": "CYP 2B6", "result": "> 10000", "unit": "nM"}, {"measurement": "Survival of Rats", "setting": "[3]; female, 25 mg/kg", "result": "7/7"}, {"measurement": "Survival of Rats", "setting": "[3]; female, 75 mg/kg", "result": "0/7"}, {"measurement": "Survival of Rats", "setting": "[3]; male, 25 mg/kg", "result": "7/7"}, {"measurement": "Survival of Rats", "setting": "[3]; male, 75 mg/kg", "result": "1/7"}, {"measurement": "fraction unbound at 5 h, 1 µM", "setting": "[4]", "result": 0.087}]}, {"smiles": "[2H][C@]1(O)c2nc(-n3c4nc(Nc5ccc(N6CCC7(CCN(C)CC7)CC6)cc5)ncc4c(=O)n3CC=C)ccc2CCC12CC2", "note": "[Compound 37b]", "values": [{"measurement": "Plasma Protein binding (PPB) Rat", "setting": "plasma protein [5]", "result": 84.10, "unit": "%"}, {"measurement": "Plasma Protein binding (PPB) Human", "setting": "plasma protein [6]", "result": 77.58, "unit": "%"}, {"measurement": "Plasma Protein binding (PPB) Mouse", "setting": "plasma protein [7]", "result": 92.46, "unit": "%"}, {"measurement": "hERG Inhibition", "setting": "hERG potassium channel; test concentration 5 μM", "result": "18.00 ± 4.80", "unit": "%"}, {"measurement": "hERG Inhibition", "setting": "hERG potassium channel; test concentration 20 μM", "result": "34.70 ± 4.40", "unit": "%"}, {"measurement": "Survival rate of rats (in words)", "setting": "[8]", "result": "significantly better than that in the control compound AZD1775 group and the control compound ZnC3 group"}]}]}
